Results reported in ChEMBL document CHEMBL5696441 (Nat Chem Biol, 2011).

Assays:
[1] = biological target: T1, Serine/threonine-protein kinase Chk1 (Homo sapiens) (UniProt O14757); assay: Inhibition of human CHK1 assessed as residual activity at 1 uM using RBER-CHKtide as substrate in presence of 33P-ATP by ProQinase assay relative to control
T1 sequence (whole entry): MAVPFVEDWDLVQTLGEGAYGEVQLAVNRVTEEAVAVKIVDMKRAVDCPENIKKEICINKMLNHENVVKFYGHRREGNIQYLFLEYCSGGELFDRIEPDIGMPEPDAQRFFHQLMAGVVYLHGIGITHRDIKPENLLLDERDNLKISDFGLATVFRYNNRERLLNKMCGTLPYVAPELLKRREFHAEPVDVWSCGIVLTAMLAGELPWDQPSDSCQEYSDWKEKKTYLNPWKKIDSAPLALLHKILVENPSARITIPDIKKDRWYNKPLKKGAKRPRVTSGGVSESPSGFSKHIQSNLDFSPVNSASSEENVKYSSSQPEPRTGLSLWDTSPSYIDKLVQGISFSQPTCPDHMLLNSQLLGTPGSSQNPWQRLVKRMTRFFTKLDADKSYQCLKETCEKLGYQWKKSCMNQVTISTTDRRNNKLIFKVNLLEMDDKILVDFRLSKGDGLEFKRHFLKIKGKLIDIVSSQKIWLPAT

[2] = biological target: Calcium/calmodulin-dependent protein kinase type 1 (Homo sapiens) (UniProt Q14012); assay: Inhibition of CAMK1 (unknown origin) assessed as remaining activity at 1 uM by Kinome scan method relative to control
[3] = biological target: Serine/threonine-protein kinase B-raf (Homo sapiens) (UniProt P15056); assay: Inhibition of human BRAF assessed as residual activity at 1 uM using MEK1-K97M as substrate in presence of 33P-ATP by ProQinase assay relative to control
[4] = biological target: T2, Tyrosine-protein kinase JAK3 (Homo sapiens) (UniProt P52333); assay: Inhibition of human JAK3 assessed as residual activity at 1 uM using poly(Ala,Glu,Lys,Tyr)6:2:5:1 as substrate in presence of 33P-ATP by ProQinase assay relative to control
T2 sequence (whole entry): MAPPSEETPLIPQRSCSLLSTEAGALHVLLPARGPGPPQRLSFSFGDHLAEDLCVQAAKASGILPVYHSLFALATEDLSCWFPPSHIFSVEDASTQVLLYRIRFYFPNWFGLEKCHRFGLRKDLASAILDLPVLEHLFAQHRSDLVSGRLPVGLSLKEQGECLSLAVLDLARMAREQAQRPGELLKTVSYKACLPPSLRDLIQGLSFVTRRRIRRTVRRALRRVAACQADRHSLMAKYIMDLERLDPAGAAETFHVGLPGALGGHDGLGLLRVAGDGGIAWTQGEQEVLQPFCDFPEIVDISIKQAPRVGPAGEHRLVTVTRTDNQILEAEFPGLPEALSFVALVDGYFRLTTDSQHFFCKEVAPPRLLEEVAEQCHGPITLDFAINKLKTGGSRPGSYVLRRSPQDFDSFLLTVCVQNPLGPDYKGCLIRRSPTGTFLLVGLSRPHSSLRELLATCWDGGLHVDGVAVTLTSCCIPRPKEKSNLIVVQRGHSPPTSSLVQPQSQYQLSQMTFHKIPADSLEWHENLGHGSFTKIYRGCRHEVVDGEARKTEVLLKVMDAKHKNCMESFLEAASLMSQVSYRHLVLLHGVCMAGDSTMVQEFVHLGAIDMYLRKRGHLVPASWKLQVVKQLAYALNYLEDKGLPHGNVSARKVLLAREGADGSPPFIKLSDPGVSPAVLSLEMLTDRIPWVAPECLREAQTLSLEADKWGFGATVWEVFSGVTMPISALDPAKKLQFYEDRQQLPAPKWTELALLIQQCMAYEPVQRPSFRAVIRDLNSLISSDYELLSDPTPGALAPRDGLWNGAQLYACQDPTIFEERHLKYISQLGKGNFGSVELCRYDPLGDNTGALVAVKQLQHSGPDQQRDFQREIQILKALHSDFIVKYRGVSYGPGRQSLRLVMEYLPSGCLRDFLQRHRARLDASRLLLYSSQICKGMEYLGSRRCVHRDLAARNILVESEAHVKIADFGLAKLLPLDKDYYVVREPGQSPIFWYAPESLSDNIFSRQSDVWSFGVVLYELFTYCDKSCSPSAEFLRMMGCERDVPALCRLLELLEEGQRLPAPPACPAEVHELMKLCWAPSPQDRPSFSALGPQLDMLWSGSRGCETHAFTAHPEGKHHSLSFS

[5] = biological target: Vascular endothelial growth factor receptor 2 (Homo sapiens) (UniProt P35968); assay: Inhibition of VEGFR2 (unknown origin) assessed as remaining activity at 1 uM by Kinome scan method relative to control
[6] = biological target: Dual specificity protein kinase CLK3 (Homo sapiens) (UniProt P49761); assay: Inhibition of CLK3 (unknown origin) assessed as remaining activity at 1 uM by Kinome scan method relative to control
[7] = Anti-inflammatory activity against human derived medium respond PBMC cells assessed as inhibition in stimulated IL-17A cytokine release incubated for 2 hrs in the presence of LPS/SEB/aCD28 by Luminex based sandwich immunoassay; format: functional, cell-based
[8] = biological target: CDK8/Cyclin C (Homo sapiens) (UniProt P49336+P24863); assay: Inhibition of human CDK8/CyclinC assessed as residual activity at 1 uM using RBER-CHKtide as substrate in presence of 33P-ATP by ProQinase assay relative to control; format: protein-complex assay

Chain of Vascular endothelial growth factor receptor 2 (Homo sapiens) (P35968 whole entry): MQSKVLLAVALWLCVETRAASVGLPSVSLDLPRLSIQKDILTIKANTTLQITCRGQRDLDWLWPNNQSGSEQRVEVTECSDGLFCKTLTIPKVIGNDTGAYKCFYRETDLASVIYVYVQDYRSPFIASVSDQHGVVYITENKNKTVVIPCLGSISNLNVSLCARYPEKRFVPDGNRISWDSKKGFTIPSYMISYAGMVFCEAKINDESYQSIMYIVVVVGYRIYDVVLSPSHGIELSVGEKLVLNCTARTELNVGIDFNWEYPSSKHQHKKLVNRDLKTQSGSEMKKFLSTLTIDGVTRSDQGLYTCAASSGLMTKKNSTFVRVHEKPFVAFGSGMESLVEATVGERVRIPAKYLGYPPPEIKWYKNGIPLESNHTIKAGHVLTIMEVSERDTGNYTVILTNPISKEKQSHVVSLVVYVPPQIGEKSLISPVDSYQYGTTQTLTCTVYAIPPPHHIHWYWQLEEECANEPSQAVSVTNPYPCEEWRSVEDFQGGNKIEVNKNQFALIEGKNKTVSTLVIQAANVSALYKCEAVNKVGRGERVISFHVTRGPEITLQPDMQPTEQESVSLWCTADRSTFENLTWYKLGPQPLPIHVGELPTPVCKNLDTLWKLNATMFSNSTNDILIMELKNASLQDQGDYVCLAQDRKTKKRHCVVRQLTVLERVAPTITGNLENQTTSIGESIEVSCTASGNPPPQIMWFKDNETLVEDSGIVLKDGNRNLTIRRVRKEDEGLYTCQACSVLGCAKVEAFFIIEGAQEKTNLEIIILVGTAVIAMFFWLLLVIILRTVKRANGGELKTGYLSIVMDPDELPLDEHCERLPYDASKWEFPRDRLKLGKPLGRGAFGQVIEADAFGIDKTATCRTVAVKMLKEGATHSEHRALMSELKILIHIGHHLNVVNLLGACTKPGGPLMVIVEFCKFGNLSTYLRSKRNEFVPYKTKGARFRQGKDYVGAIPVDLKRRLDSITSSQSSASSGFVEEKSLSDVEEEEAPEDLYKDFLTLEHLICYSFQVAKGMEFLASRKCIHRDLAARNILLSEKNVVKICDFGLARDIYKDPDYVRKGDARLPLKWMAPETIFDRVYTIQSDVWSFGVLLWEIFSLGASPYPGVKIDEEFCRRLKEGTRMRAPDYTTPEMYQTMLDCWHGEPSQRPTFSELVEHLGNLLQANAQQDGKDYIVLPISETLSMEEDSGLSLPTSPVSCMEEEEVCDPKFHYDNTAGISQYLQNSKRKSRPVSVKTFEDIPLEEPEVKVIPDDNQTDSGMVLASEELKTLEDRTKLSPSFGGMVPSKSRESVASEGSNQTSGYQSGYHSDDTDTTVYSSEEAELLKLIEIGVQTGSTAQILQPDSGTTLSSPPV
Chain of Dual specificity protein kinase CLK3 (Homo sapiens) (P49761 whole entry, looked up): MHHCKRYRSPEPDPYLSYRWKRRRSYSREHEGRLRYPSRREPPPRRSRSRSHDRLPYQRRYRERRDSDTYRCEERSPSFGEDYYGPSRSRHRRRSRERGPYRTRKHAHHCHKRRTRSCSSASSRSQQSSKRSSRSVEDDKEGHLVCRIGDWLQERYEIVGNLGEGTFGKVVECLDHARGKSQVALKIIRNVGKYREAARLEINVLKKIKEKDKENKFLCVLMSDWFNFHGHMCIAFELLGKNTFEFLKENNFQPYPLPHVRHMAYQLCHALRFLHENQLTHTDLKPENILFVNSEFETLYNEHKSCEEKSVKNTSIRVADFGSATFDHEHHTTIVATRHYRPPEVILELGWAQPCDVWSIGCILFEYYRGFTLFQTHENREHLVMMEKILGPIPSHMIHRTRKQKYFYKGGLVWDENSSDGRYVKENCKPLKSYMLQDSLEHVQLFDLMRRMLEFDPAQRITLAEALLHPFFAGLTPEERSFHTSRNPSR
Chain of Calcium/calmodulin-dependent protein kinase type 1 (Homo sapiens) (Q14012 whole entry, looked up): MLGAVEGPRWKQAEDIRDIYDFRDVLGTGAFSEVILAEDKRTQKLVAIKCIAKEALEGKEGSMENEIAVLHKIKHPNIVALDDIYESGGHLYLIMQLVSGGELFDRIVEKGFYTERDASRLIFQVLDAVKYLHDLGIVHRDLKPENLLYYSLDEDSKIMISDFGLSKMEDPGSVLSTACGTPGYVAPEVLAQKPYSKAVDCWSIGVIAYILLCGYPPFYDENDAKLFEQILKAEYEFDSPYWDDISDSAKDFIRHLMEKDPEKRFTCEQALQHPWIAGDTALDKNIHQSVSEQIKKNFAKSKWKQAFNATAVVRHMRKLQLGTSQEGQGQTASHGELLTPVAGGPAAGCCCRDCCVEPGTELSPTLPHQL
Chain of Serine/threonine-protein kinase B-raf (Homo sapiens) (P15056 whole entry): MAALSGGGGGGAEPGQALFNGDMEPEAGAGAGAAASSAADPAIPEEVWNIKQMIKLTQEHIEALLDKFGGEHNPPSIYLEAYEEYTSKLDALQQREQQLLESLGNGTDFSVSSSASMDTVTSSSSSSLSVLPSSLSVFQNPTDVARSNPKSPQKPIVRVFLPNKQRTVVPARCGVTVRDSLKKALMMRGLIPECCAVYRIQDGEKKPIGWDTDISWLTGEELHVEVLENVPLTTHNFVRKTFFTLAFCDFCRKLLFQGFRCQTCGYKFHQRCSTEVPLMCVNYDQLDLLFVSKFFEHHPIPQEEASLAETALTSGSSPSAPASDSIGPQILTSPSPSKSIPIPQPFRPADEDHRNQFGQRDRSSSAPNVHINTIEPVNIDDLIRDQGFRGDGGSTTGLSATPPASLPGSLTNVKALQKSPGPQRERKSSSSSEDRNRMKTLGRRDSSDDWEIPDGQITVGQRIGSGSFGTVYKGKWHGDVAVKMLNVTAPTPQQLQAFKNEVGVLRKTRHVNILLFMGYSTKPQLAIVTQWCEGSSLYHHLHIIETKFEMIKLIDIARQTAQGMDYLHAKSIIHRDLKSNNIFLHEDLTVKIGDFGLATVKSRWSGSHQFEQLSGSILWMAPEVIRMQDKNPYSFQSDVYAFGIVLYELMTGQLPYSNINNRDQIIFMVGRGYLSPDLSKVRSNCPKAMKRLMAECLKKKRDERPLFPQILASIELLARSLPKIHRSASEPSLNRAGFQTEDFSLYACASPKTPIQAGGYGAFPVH

Work on `O=C1c2ccc(Nc3ccc(F)cc3F)cc2CCc2ccc(OC[C@H](O)CO)cc21` [Skepinone-L] yielded an Activity [1] of 94%, an Activity [2] of 100% and an Activity [3] of 112%. For the same compound, the Activity [4] was 103%, the Activity [5] was 100% and the Activity [6] was 96%. For the same compound, the IC50 [7] was 7.85 µM and the Activity [8] was 105%.
